Assay [1] has as its target T1, human MC4R (Homo sapiens, UniProt P32245). Description: Time resolved fluorescence competition binding assay against Eu-NDP-α-MSH. To be noted: for Relative potency to Ac-MSH(4): Table 2.
Assay [2] deals with T1, human MC4R. Description: cAMP biological response chemiluminescent immunoassay in Hek293/hMC4R cells. The assay is classed as cell-based. To be noted: hMC4R cells, result in words.

Like-named read-outs stand apart in the source and are kept apart here. Non-standard residues stand in square brackets, D forms with d. Residues, ends and D or L forms follow the SMILES beside them. *: point of attachment. X1 = CC(=O)NCCCC(CCCNC(C)=O)(NC(=O)CNC(=O)Cn1cc(CCC(=O)*)nn1)C(=O)NCCC(N)=O

T1 sequence (P32245 whole entry): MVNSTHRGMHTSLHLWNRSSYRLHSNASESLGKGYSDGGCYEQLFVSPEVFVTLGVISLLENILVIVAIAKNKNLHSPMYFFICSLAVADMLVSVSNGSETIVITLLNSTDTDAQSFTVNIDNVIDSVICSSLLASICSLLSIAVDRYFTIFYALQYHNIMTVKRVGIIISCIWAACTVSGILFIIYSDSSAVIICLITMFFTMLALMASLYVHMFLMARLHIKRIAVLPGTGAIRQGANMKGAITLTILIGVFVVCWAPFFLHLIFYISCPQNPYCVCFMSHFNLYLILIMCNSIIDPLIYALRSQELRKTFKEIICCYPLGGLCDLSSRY

The term IC50 denotes the point on the concentration scale where inhibition reaches its midpoint. The low end stands for greater potency in that assay, the high end for weaker potency in that assay. `CC(=O)N[C@@H](CCCCNC(=O)CCc1cn(CC(=O)NCC(=O)N2CCC[C@H]2C(=O)NCC(=O)N2CCC[C@H]2C(=O)NCC(=O)NCCCC(CCCNC(=O)CNC(=O)[C@@H]2CCCN2C(=O)CNC(=O)[C@@H]2CCCN2C(=O)CNC(=O)Cn2cc(CCC(=O)NCCCC[C@H](NC(C)=O)C(=O)N[C@@H](Cc3c[nH]cn3)C(=O)N[C@H](Cc3ccccc3)C(=O)N[C@@H](CCCNC(=N)N)C(=O)N[C@@H](Cc3c[nH]c4ccccc34)C(N)=O)nn2)(NC(=O)CNC(=O)CNC(=O)[C@@H]2CCCN2C(=O)CNC(=O)[C@@H]2CCCN2C(=O)CNC(=O)Cn2cc(CCC(=O)NCCCC[C@H](NC(C)=O)C(=O)N[C@@H](Cc3c[nH]cn3)C(=O)N[C@H](Cc3ccccc3)C(=O)N[C@@H](CCCNC(=N)N)C(=O)N[C@@H](Cc3c[nH]c4ccccc34)C(N)=O)nn2)C(=O)NCCC(N)=O)nn1)C(=O)N[C@@H](Cc1c[nH]cn1)C(=O)N[C@H](Cc1ccccc1)C(=O)N[C@@H](CCCNC(=N)N)C(=O)N[C@@H](Cc1c[nH]c2ccccc12)C(N)=O` (stereo partly shown) [NB299] displayed an IC50 on human MC4R [1] of 410 ± 70 nM. Also, the “Relative potency to Ac-MSH(4)” value on human MC4R [1] (ratio of IC50 values, fold) is listed as 11.
Regarding `CC(=O)NCCCC(CCCNC(C)=O)(NC(=O)CNC(=O)Cn1cc(CCC(=O)NCCCC[C@H](NC(C)=O)C(=O)N[C@@H](Cc2c[nH]cn2)C(=O)N[C@H](Cc2ccccc2)C(=O)N[C@@H](CCCNC(=N)N)C(=O)N[C@@H](Cc2c[nH]c3ccccc23)C(N)=O)nn1)C(=O)NCCC(N)=O` [NB397] (Ac-K(X1)H[dF]RW-NH2; N-terminus assumed), the “cAMP production, agonist activity at MC4R” value at human MC4R [2] is on record as “agonists”.
`CC(=O)N[C@@H](CCCCNC(=O)CCc1cn(CC(=O)NCC(=O)N2CCC[C@H]2C(=O)NCC(=O)NCCCC(CCCNC(=O)CNC(=O)[C@@H]2CCCN2C(=O)CNC(=O)Cn2cc(CCC(=O)NCCCC[C@H](NC(C)=O)C(=O)N[C@@H](Cc3c[nH]cn3)C(=O)N[C@H](Cc3ccccc3)C(=O)N[C@@H](CCCNC(=N)N)C(=O)N[C@@H](Cc3c[nH]c4ccccc34)C(N)=O)nn2)(NC(=O)CNC(=O)CNC(=O)[C@@H]2CCCN2C(=O)CNC(=O)Cn2cc(CCC(=O)NCCCC[C@H](NC(C)=O)C(=O)N[C@@H](Cc3c[nH]cn3)C(=O)N[C@H](Cc3ccccc3)C(=O)N[C@@H](CCCNC(=N)N)C(=O)N[C@@H](Cc3c[nH]c4ccccc34)C(N)=O)nn2)C(=O)NCCC(N)=O)nn1)C(=O)N[C@@H](Cc1c[nH]cn1)C(=O)N[C@H](Cc1ccccc1)C(=O)N[C@@H](CCCNC(=N)N)C(=O)N[C@@H](Cc1c[nH]c2ccccc12)C(N)=O` (stereo partly shown) [NB298] returned an IC50 on human MC4R [1] of 220 ± 59 nM. Further, the “Relative potency to Ac-MSH(4)” value at human MC4R [1] (ratio of IC50 values, fold) is 21.
For the compound `CC(=O)N[C@@H](CCCCNC(=O)CCc1cn(CC(=O)NCCC(=O)NCCC(=O)NCCCC(CCCNC(=O)CCNC(=O)CCNC(=O)Cn2cc(CCC(=O)NCCCC[C@H](NC(C)=O)C(=O)N[C@@H](Cc3c[nH]cn3)C(=O)N[C@H](Cc3ccccc3)C(=O)N[C@@H](CCCNC(=N)N)C(=O)N[C@@H](Cc3c[nH]c4ccccc34)C(N)=O)nn2)(NC(=O)CNC(=O)CCNC(=O)CCNC(=O)Cn2cc(CCC(=O)NCCCC[C@H](NC(C)=O)C(=O)N[C@@H](Cc3c[nH]cn3)C(=O)N[C@H](Cc3ccccc3)C(=O)N[C@@H](CCCNC(=N)N)C(=O)N[C@@H](Cc3c[nH]c4ccccc34)C(N)=O)nn2)C(=O)NCCC(N)=O)nn1)C(=O)N[C@@H](Cc1c[nH]cn1)C(=O)N[C@H](Cc1ccccc1)C(=O)N[C@@H](CCCNC(=N)N)C(=O)N[C@@H](Cc1c[nH]c2ccccc12)C(N)=O` (stereo partly shown) [NB302], the IC50 on human MC4R [1] was 120 ± 10 nM. In addition, the “Relative potency to Ac-MSH(4)” value at human MC4R [1] (ratio of IC50 values, fold) is 38.
For `CC(=O)NCC(=O)NC(CCCNC(=O)Cn1cc(CCC(=O)NCCCC[C@H](NC(C)=O)C(=O)N[C@@H](Cc2c[nH]cn2)C(=O)N[C@H](Cc2ccccc2)C(=O)N[C@@H](CCCNC(=N)N)C(=O)N[C@@H](Cc2c[nH]c3ccccc23)C(N)=O)nn1)(CCCNC(=O)Cn1cc(CCC(=O)NCCCC[C@H](NC(C)=O)C(=O)N[C@@H](Cc2c[nH]cn2)C(=O)N[C@H](Cc2ccccc2)C(=O)N[C@@H](CCCNC(=N)N)C(=O)N[C@@H](Cc2c[nH]c3ccccc23)C(N)=O)nn1)C(=O)NCCC(N)=O` (stereo partly shown) [NB399], the “Relative potency to NB397” value at human MC4R [1] (Table 3, ratio of IC50 values, fold) turned out to be 16. Also, the “cAMP production, agonist activity at MC4R” value on human MC4R [2] is recorded as “agonists”.
As for `CC(=O)N[C@@H](CCCCNC(=O)CCc1cn(CC(=O)NCCCC(CCCNC(=O)Cn2cc(CCC(=O)NCCCC[C@H](NC(C)=O)C(=O)N[C@@H](Cc3c[nH]cn3)C(=O)N[C@H](Cc3ccccc3)C(=O)N[C@@H](CCCNC(=N)N)C(=O)N[C@@H](Cc3c[nH]c4ccccc34)C(N)=O)nn2)(NC(=O)CNC(=O)Cn2cc(CCC(=O)NCCCC[C@H](NC(C)=O)C(=O)N[C@@H](Cc3c[nH]cn3)C(=O)N[C@H](Cc3ccccc3)C(=O)N[C@@H](CCCNC(=N)N)C(=O)N[C@@H](Cc3c[nH]c4ccccc34)C(N)=O)nn2)C(=O)NCCC(N)=O)nn1)C(=O)N[C@@H](Cc1c[nH]cn1)C(=O)N[C@H](Cc1ccccc1)C(=O)N[C@@H](CCCNC(=N)N)C(=O)N[C@@H](Cc1c[nH]c2ccccc12)C(N)=O` (stereo partly shown) [NB297], the IC50 is 71 ± 5.3 nM on human MC4R [1] and around 72 nM on human MC4R [1] (IC50, MC4R binding affinity as quoted in the text). Also, the “Relative potency to Ac-MSH(4)” value at human MC4R [1] (ratio of IC50 values, fold) worked out at 64.
`CC(=O)N[C@@H](CCCCNC(=O)CCc1cn(CC(=O)NCC(=O)N2CCC[C@H]2C(=O)NCC(=O)N2CCC[C@H]2C(=O)NCC(=O)N2CCC[C@H]2C(=O)NCC(=O)NCCCC(CCCNC(=O)CNC(=O)[C@@H]2CCCN2C(=O)CNC(=O)[C@@H]2CCCN2C(=O)CNC(=O)[C@@H]2CCCN2C(=O)CNC(=O)Cn2cc(CCC(=O)NCCCC[C@H](NC(C)=O)C(=O)N[C@@H](Cc3c[nH]cn3)C(=O)N[C@H](Cc3ccccc3)C(=O)N[C@@H](CCCNC(=N)N)C(=O)N[C@@H](Cc3c[nH]c4ccccc34)C(N)=O)nn2)(NC(=O)CNC(=O)CNC(=O)[C@@H]2CCCN2C(=O)CNC(=O)[C@@H]2CCCN2C(=O)CNC(=O)[C@@H]2CCCN2C(=O)CNC(=O)Cn2cc(CCC(=O)NCCCC[C@H](NC(C)=O)C(=O)N[C@@H](Cc3c[nH]cn3)C(=O)N[C@H](Cc3ccccc3)C(=O)N[C@@H](CCCNC(=N)N)C(=O)N[C@@H](Cc3c[nH]c4ccccc34)C(N)=O)nn2)C(=O)NCCC(N)=O)nn1)C(=O)N[C@@H](Cc1c[nH]cn1)C(=O)N[C@H](Cc1ccccc1)C(=O)N[C@@H](CCCNC(=N)N)C(=O)N[C@@H](Cc1c[nH]c2ccccc12)C(N)=O` (stereo partly shown) [NB300] came in with an IC50 on human MC4R [1] of 620 ± 51 nM. Further, on human MC4R [1] (ratio of IC50 values, fold), the “Relative potency to Ac-MSH(4)” value is listed as 7.
Regarding `CC(=O)N[C@@H](CCCCNC(=O)CCc1cn(CC(=O)NCCC(=O)NCCCC(CCCNC(=O)CCNC(=O)Cn2cc(CCC(=O)NCCCC[C@H](NC(C)=O)C(=O)N[C@@H](Cc3c[nH]cn3)C(=O)N[C@H](Cc3ccccc3)C(=O)N[C@@H](CCCNC(=N)N)C(=O)N[C@@H](Cc3c[nH]c4ccccc34)C(N)=O)nn2)(NC(=O)CNC(=O)CCNC(=O)Cn2cc(CCC(=O)NCCCC[C@H](NC(C)=O)C(=O)N[C@@H](Cc3c[nH]cn3)C(=O)N[C@H](Cc3ccccc3)C(=O)N[C@@H](CCCNC(=N)N)C(=O)N[C@@H](Cc3c[nH]c4ccccc34)C(N)=O)nn2)C(=O)NCCC(N)=O)nn1)C(=O)N[C@@H](Cc1c[nH]cn1)C(=O)N[C@H](Cc1ccccc1)C(=O)N[C@@H](CCCNC(=N)N)C(=O)N[C@@H](Cc1c[nH]c2ccccc12)C(N)=O` (stereo partly shown) [NB301], at human MC4R [1], the 50% inhibitory concentration (IC50) was determined as 88 ± 12 nM. Moreover, at human MC4R [1] (ratio of IC50 values, fold), the “Relative potency to Ac-MSH(4)” value was 52.

These data come from paper PMC3521580 (Journal of medicinal chemistry, 2011).
